The values that follow come from patent US10709684B2, “SGLT-2 inhibitors for treating metabolic disorders in patients with renal impairment or chronic kidney disease” (Merck Sharp & Dohme Corp., priority 2014, dated 2020).

Where two headings read alike, the source gives them in different places.

Type in all cases: in vivo, human
Data set [1] has as its system healthy and T2DM subjects. In words: Phase 1 single dose study: safety and tolerability. Particulars: single 15 mg dose; subjects with normal renal function and T2DM subjects with renal impairment. The source says: (§1) Ertugliflozin inhibits renal glucose reabsorption resulting in urinary glucose excretion, thereby reducing plasma glucose and HbA1c. The glycemic efficacy of SGLT2 inhibitors depends on the amount of glucose filtered through the kidney and the kidney is potentially a site of ertugliflozin metabolism. As renal impairment (RI) is a co-morbidity of T2DM, this study evaluated the effect of RI on the pharmacokinetics, pharmacodynamics (as measured by 24-hour urinary glucose excretion [UGE24]), safety, and tolerability of ertugliflozin in subjects with T2DM.
(§2) In this Phase 1, multi-center, open-label study, a single 15 mg oral dose of ertugliflozin was administered in the fasted state to healthy and T2DM subjects with normal renal function (estimated glomerular filtration rate [eGFR]≥90 mL/min) and in T2DM subjects with mild RI (eGFR 60-89 mL/min), moderate RI (eGFR 30-59 mL/min) and severe RI (eGFR<30 mL/min). Serial blood samples and urine samples at specified intervals were collected for 96 hours post-dose for pharmacokinetic evaluation and for measurement of UGE24.

For data set [2], the system named is urinary glucose excretion. In words: Phase 1 single dose study: pharmacodynamics, 24-hour urinary glucose excretion (UGE24). Particulars: single 15 mg oral dose; for Change from baseline in UGE24: fasted, geometric mean.
Source text: (§3) Results of a Phase I, Single Dose Study to Study the Effect of Renal Impairment on the Pharmacokinetics and Pharmacodynamics of Ertugliflozin in Subjects with Type 2 Diabetes Mellitus (T2DM)
as §1, §2

Data set [3] can be described thus: Phase 1 single dose study: pharmacokinetics of ertugliflozin in renal impairment. Particulars: single 15 mg oral dose; for AUC(0-inf) / Cmax: geometric mean.
Source text: as §3, §1, §2

[4] abbreviates: Healthy Normal renal function (eGFR>=90 mL/min), n = 8, fasted.
[5] abbreviates: T2DM Normal renal function (eGFR>=90 mL/min), n = 6, fasted.

The Cmax is the peak of the concentration-time curve.

`CCOc1ccc(Cc2cc([C@]34OC[C@](CO)(O3)[C@@H](O)[C@H](O)[C@H]4O)ccc2Cl)cc1` [Ertugliflozin, (1S,2S,3S,4R,5S)-5-[4-chloro-3-(4-ethoxy-benzyl)-phenyl]-1-hydroxymethyl-6,8-dioxa-bicyclo[3.2.1]octane-2,3,4-triol]: the tolerability entry in data set [1] is on record as “well tolerated”. In addition, the “Change from baseline in UGE24” value was found to be 46.3 g in data set [2] (Healthy Normal renal function (eGFR>=90 mL/min), n = 8); 36.0 g in data set [2] (T2DM Mild RI (eGFR 60-89 mL/min), n = 8); 27.6 g in data set [2] (T2DM Moderate RI (eGFR 30-59 mL/min), n = 8); 72.3 g in data set [2] (T2DM Normal renal function (eGFR>=90 mL/min), n = 6); 10.1 g in data set [2] (T2DM Severe RI (eGFR<30 mL/min), n = 6). Further, the “UGE24 trend with renal function” value in data set [2] (despite the higher exposure) was “decreased with declining renal function”. For the same compound, the AUC(0-inf) in data set [3] (setting [4]) was determined as 1236 ng·h/mL; in data set [3] (setting [5]), 1199 ng·h/mL; in data set [3] (human, in vivo, po, 15 mg, T2DM Mild RI (eGFR 60-89 mL/min), n = 8, fasted, read-out: AUC0-inf) it was 1910 ng·h/mL; in data set [3] (human, in vivo, po, 15 mg, T2DM Moderate RI (eGFR 30-59 mL/min), n = 8, fasted, read-out: AUC0-inf) it was 2080 ng·h/mL; in data set [3] (human, in vivo, po, 15 mg, T2DM Severe RI (eGFR<30 mL/min), n = 6, fasted, read-out: AUC0-inf), 1900 ng·h/mL. Besides, the Cmax in data set [3] (setting [4]) is given as 219 ng/mL; in data set [3] (T2DM Mild RI (eGFR 60-89 mL/min), n = 8, fasted) it was 313 ng/mL; in data set [3] (T2DM Moderate RI (eGFR 30-59 mL/min), n = 8, fasted), 306 ng/mL; in data set [3] (setting [5]), 216 ng/mL; in data set [3] (T2DM Severe RI (eGFR<30 mL/min), n = 6, fasted) it was 196 ng/mL. For the same compound, the “effect of renal insufficiency on systemic exposure” value in data set [3] (compared to subjects with normal renal function) is on record as “moderately increased”. Moreover, in data set [3] (fasted), the “exposures in healthy subjects versus T2DM subjects with normal renal function” value is “similar”.
